In US20250353891A1 (MEDIMMUNE LIMITED, priority 2022, published 2025):
Starred links: 1 amine or outer side, 2 acyl side, 3 side chain; linkers in the order of their positions; H or OH if unused. Non-standard residues stand in square brackets, D forms with d. Residues, ends and D or L forms follow the SMILES beside them. Groups on a side chain read outwards from the residue. *: point of attachment. C20 diacid = O=C(O)CCCCCCCCCCCCCCCCCCC(=O)*; C18 diacid = O=C(O)CCCCCCCCCCCCCCCCC(=O)*; γGlu = O=C(O)[C@H](CCC(=O)[*:2])N[*:1]; αMeF = C[C@](N)(Cc1ccccc1)C(=O)O; PEG2 = NCCOCCOCCC(=O)O; AEEA = NCCOCCOCC(=O)O; Aib = CC(C)(N)C(=O)O

Legend:
[1] = molecular target: human glucagon receptor (hGCGR) (Homo sapiens, UniProt P47871); experiment: cAMP production (HTRF) in CHO cells expressing hGCGR; type: cell-based; parameters: expressed in transfected cells; conditions: hGluc-R EC50 (pM), cAMP, CHO cells, 0.1% BSA, geometric mean
How it was run: (§1)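 Cells were resuspended in assay buffer at batch-optimized density, typically 1×10^5 cells/mL for hGLP-1R and 2×10^5 cells/mL for hGCGR. After 30 min incubation at room temperature with compound, cAMP was measured by two-step HTRF. EC50 values came from 4-parameter logistic fits of % Delta F.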

[2] = molecular target: human GLP-1 receptor (hGLP-1R) (Homo sapiens, UniProt P43220); experiment: cAMP production (HTRF) in CHO cells expressing hGLP-1R; type: cell-based; parameters: expressed in transfected cells; conditions: for % Relative Potency Ratio: % GLP-1R activity relative to GLP-1 / % GlucR activity relative to glucagon; for EC50: hGLP-1R EC50 (pM)
How it was run: as §1

human GLP-1 receptor (hGLP-1R), sequence (P43220 24-463): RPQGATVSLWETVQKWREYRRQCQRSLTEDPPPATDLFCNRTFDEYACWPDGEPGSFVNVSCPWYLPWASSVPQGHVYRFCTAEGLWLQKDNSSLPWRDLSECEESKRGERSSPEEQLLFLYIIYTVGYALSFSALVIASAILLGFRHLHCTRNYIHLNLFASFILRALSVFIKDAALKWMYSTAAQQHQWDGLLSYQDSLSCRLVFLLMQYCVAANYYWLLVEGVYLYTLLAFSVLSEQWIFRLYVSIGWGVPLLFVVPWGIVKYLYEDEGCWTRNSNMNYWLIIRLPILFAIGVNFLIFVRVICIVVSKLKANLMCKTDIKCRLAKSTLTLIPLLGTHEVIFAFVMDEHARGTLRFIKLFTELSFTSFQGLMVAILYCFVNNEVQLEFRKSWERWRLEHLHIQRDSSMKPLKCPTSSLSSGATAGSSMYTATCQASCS
human glucagon receptor (hGCGR), sequence (P47871 26-477): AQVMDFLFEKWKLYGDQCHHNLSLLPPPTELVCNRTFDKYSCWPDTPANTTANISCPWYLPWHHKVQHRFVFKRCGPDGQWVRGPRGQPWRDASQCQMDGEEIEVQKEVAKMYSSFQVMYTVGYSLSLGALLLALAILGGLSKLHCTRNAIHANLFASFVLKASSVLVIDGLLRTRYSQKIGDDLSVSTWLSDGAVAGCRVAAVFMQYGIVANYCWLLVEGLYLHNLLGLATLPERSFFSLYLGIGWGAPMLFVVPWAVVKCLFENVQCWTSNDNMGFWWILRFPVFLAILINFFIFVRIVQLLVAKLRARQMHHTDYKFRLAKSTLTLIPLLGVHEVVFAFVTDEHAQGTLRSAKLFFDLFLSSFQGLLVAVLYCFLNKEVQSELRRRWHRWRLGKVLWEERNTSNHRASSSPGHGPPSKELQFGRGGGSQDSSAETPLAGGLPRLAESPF

SMILES	EC50 [1]	% Relative Potency Ratio [2]	EC50 [2]
CC[C@H](C)[C@H](NC(=O)[C@H](Cc1c[nH]c2ccccc12)NC(=O)[C@H](CCCCNC(=O)COCCOCCNC(=O)COCCOCCNC(=O)CC[C@H](NC(=O)CCCCCCCCCCCCCCCCC(=O)O)C(=O)O)NC(=O)[C@@H](NC(=O)[C@H](Cc1ccccc1)NC(=O)[C@H](CC(=O)O)NC(=O)[C@H](CCC(N)=O)NC(=O)[C@H](C)NC(=O)[C@H](C)NC(=O)[C@H](CCC(N)=O)NC(=O)[C@H](CO)NC(=O)[C@H](CC(=O)O)NC(=O)[C@H](CC(C)C)NC(=O)[C@](C)(Cc1ccccc1)NC(=O)[C@H](CCCCN)NC(=O)[C@H](CO)NC(=O)[C@@H](NC(=O)[C@H](CC(=O)O)NC(=O)[C@H](CO)NC(=O)[C@@H](NC(=O)[C@](C)(Cc1ccccc1)NC(=O)[C@H](CO)NC(=O)CNC(=O)[C@H](Cc1c[nH]cn1)NC(=O)C(C)(C)NC(=O)[C@@H](N)Cc1c[nH]cn1)[C@@H](C)O)C(C)C)C(C)C)C(=O)N[C@@H](C)C(=O)N[C@@H](CC(N)=O)C(=O)N[C@H](C(=O)NCC(=O)NCC(N)=O)[C@@H](C)O [Peptide 350] (H-H[Aib]HGS[αMeF]TSDVSK[αMeF]LDSQAAQDFVK([AEEA-AEEA-γGlu-C18 diacid])WIANTGG-NH2; N-terminus assumed)	384 pM	8.6	88.6 pM
CC[C@H](C)[C@H](NC(=O)[C@H](Cc1c[nH]c2ccccc12)NC(=O)[C@H](CCCCNC(=O)CC[C@H](NC(=O)CCCCCCCCCCCCCCCCC(=O)O)C(=O)O)NC(=O)[C@@H](NC(=O)[C@H](Cc1ccccc1)NC(=O)[C@H](CC(=O)O)NC(=O)[C@H](CCC(N)=O)NC(=O)[C@H](C)NC(=O)[C@H](C)NC(=O)[C@H](CCC(N)=O)NC(=O)[C@H](CO)NC(=O)[C@H](CC(=O)O)NC(=O)[C@H](CC(C)C)NC(=O)[C@](C)(Cc1ccccc1)NC(=O)[C@H](CCCCN)NC(=O)[C@H](CO)NC(=O)[C@@H](NC(=O)[C@H](CC(=O)O)NC(=O)[C@H](CO)NC(=O)[C@@H](NC(=O)[C@](C)(Cc1ccccc1)NC(=O)[C@H](CO)NC(=O)CNC(=O)[C@H](Cc1c[nH]cn1)NC(=O)C(C)(C)NC(=O)[C@@H](N)Cc1c[nH]cn1)[C@@H](C)O)C(C)C)C(C)C)C(=O)N[C@@H](C)C(=O)N[C@@H](CC(N)=O)C(=O)N[C@H](C(N)=O)[C@@H](C)O [Peptide 351] (H-H[Aib]HGS[αMeF]TSDVSK[αMeF]LDSQAAQDFVK([γGlu-C18 diacid])WIANT-NH2)	216 pM	0.7	605 pM
CC[C@H](C)[C@H](NC(=O)[C@H](Cc1c[nH]c2ccccc12)NC(=O)[C@H](CCCCNC(=O)CCOCCOCCNC(=O)CCOCCOCCNC(=O)CC[C@H](NC(=O)CC[C@H](NC(=O)CCCCCCCCCCCCCCCCC(=O)O)C(=O)O)C(=O)O)NC(=O)[C@@H](NC(=O)[C@H](Cc1ccccc1)NC(=O)[C@H](CC(=O)O)NC(=O)[C@H](CCC(N)=O)NC(=O)[C@H](C)NC(=O)[C@H](C)NC(=O)[C@H](CCC(N)=O)NC(=O)[C@H](CO)NC(=O)[C@H](CC(=O)O)NC(=O)[C@H](CC(C)C)NC(=O)[C@](C)(Cc1ccccc1)NC(=O)[C@H](CCCCN)NC(=O)[C@H](CO)NC(=O)[C@@H](NC(=O)[C@H](CC(=O)O)NC(=O)[C@H](CO)NC(=O)[C@@H](NC(=O)[C@](C)(Cc1ccccc1)NC(=O)[C@H](CO)NC(=O)CNC(=O)[C@H](Cc1c[nH]cn1)NC(=O)C(C)(C)NC(=O)[C@@H](N)Cc1c[nH]cn1)[C@@H](C)O)C(C)C)C(C)C)C(=O)N[C@@H](C)C(=O)N[C@@H](CC(N)=O)C(=O)N[C@H](C(N)=O)[C@@H](C)O [Peptide 352] (H-H[Aib]HGS[αMeF]TSDVSK[αMeF]LDSQAAQDFVK([PEG2-PEG2-γGlu-γGlu-C18 diacid])WIANT-NH2; N-terminus assumed)	139 pM	1.4	193 pM
CC[C@H](C)[C@H](NC(=O)[C@H](Cc1c[nH]c2ccccc12)NC(=O)[C@H](CCCCNC(=O)CC[C@H](NC(=O)CC[C@H](NC(=O)CCOCCOCCNC(=O)CC[C@H](NC(=O)CC[C@H](NC(=O)CCCCCCCCCCCCCCCCC(=O)O)C(=O)O)C(=O)O)C(=O)O)C(=O)O)NC(=O)[C@@H](NC(=O)[C@H](Cc1ccccc1)NC(=O)[C@H](CC(=O)O)NC(=O)[C@H](CCC(N)=O)NC(=O)[C@H](C)NC(=O)[C@H](C)NC(=O)[C@H](CCC(N)=O)NC(=O)[C@H](CO)NC(=O)[C@H](CC(=O)O)NC(=O)[C@H](CC(C)C)NC(=O)[C@](C)(Cc1ccccc1)NC(=O)[C@H](CCCCN)NC(=O)[C@H](CO)NC(=O)[C@@H](NC(=O)[C@H](CC(=O)O)NC(=O)[C@H](CO)NC(=O)[C@@H](NC(=O)[C@](C)(Cc1ccccc1)NC(=O)[C@H](CO)NC(=O)CNC(=O)[C@H](Cc1c[nH]cn1)NC(=O)C(C)(C)NC(=O)[C@@H](N)Cc1c[nH]cn1)[C@@H](C)O)C(C)C)C(C)C)C(=O)N[C@@H](C)C(=O)N[C@@H](CC(N)=O)C(=O)N[C@H](C(N)=O)[C@@H](C)O [Peptide 353] (H-H[Aib]HGS[αMeF]TSDVSK[αMeF]LDSQAAQDFVK([γGlu-γGlu-PEG2-γGlu-γGlu-C18 diacid])WIANT-NH2; N-terminus assumed)	163 pM	1.0	311 pM
CC[C@H](C)[C@H](NC(=O)[C@H](Cc1c[nH]c2ccccc12)NC(=O)[C@H](CCCCNC(=O)CC[C@H](NC(=O)CCCCCCCCCCCCCCCCCCC(=O)O)C(=O)O)NC(=O)[C@@H](NC(=O)[C@H](Cc1ccccc1)NC(=O)[C@H](CC(=O)O)NC(=O)[C@H](CCC(N)=O)NC(=O)[C@H](C)NC(=O)[C@H](C)NC(=O)[C@H](CCC(N)=O)NC(=O)[C@H](CO)NC(=O)[C@H](CC(=O)O)NC(=O)[C@H](CC(C)C)NC(=O)[C@](C)(Cc1ccccc1)NC(=O)[C@H](CCCCN)NC(=O)[C@H](CO)NC(=O)[C@@H](NC(=O)[C@H](CC(=O)O)NC(=O)[C@H](CO)NC(=O)[C@@H](NC(=O)[C@](C)(Cc1ccccc1)NC(=O)[C@H](CO)NC(=O)CNC(=O)[C@H](Cc1c[nH]cn1)NC(=O)C(C)(C)NC(=O)[C@@H](N)Cc1c[nH]cn1)[C@@H](C)O)C(C)C)C(C)C)C(=O)N[C@@H](C)C(=O)N[C@@H](CC(N)=O)C(=O)N[C@H](C(N)=O)[C@@H](C)O [Peptide 354]	902 pM	1.6	1110 pM
CC[C@H](C)[C@H](NC(=O)[C@H](Cc1c[nH]c2ccccc12)NC(=O)[C@H](CCCCNC(=O)CCOCCOCCNC(=O)CCOCCOCCNC(=O)CC[C@H](NC(=O)CC[C@H](NC(=O)CCCCCCCCCCCCCCCCCCC(=O)O)C(=O)O)C(=O)O)NC(=O)[C@@H](NC(=O)[C@H](Cc1ccccc1)NC(=O)[C@H](CC(=O)O)NC(=O)[C@H](CCC(N)=O)NC(=O)[C@H](C)NC(=O)[C@H](C)NC(=O)[C@H](CCC(N)=O)NC(=O)[C@H](CO)NC(=O)[C@H](CC(=O)O)NC(=O)[C@H](CC(C)C)NC(=O)[C@](C)(Cc1ccccc1)NC(=O)[C@H](CCCCN)NC(=O)[C@H](CO)NC(=O)[C@@H](NC(=O)[C@H](CC(=O)O)NC(=O)[C@H](CO)NC(=O)[C@@H](NC(=O)[C@](C)(Cc1ccccc1)NC(=O)[C@H](CO)NC(=O)CNC(=O)[C@H](Cc1c[nH]cn1)NC(=O)C(C)(C)NC(=O)[C@@H](N)Cc1c[nH]cn1)[C@@H](C)O)C(C)C)C(C)C)C(=O)N[C@@H](C)C(=O)N[C@@H](CC(N)=O)C(=O)N[C@H](C(N)=O)[C@@H](C)O [Peptide 355] (H-H[Aib]HGS[αMeF]TSDVSK[αMeF]LDSQAAQDFVK([PEG2-PEG2-γGlu-γGlu-C20 diacid])WIANT-NH2; N-terminus assumed)	478 pM	2.2	424 pM
CC[C@H](C)[C@H](NC(=O)[C@H](Cc1c[nH]c2ccccc12)NC(=O)[C@H](CCCCNC(=O)COCCOCCNC(=O)COCCOCCNC(=O)CC[C@H](NC(=O)CCCCCCCCCCCCCCCCCCC(=O)O)C(=O)O)NC(=O)[C@@H](NC(=O)[C@H](Cc1ccccc1)NC(=O)[C@H](CC(=O)O)NC(=O)[C@H](CCC(N)=O)NC(=O)[C@H](C)NC(=O)[C@H](C)NC(=O)[C@H](CCC(N)=O)NC(=O)[C@H](CO)NC(=O)[C@H](CC(=O)O)NC(=O)[C@H](CC(C)C)NC(=O)[C@](C)(Cc1ccccc1)NC(=O)[C@H](CCCCN)NC(=O)[C@H](CO)NC(=O)[C@@H](NC(=O)[C@H](CC(=O)O)NC(=O)[C@H](CO)NC(=O)[C@@H](NC(=O)[C@](C)(Cc1ccccc1)NC(=O)[C@H](CO)NC(=O)CNC(=O)[C@H](Cc1c[nH]cn1)NC(=O)C(C)(C)NC(=O)[C@@H](N)Cc1c[nH]cn1)[C@@H](C)O)C(C)C)C(C)C)C(=O)N[C@@H](C)C(=O)N[C@@H](CC(N)=O)C(=O)N[C@H](C(N)=O)[C@@H](C)O [Peptide 356] (H-H[Aib]HGS[αMeF]TSDVSK[αMeF]LDSQAAQDFVK([AEEA-AEEA-γGlu-C20 diacid])WIANT-NH2; N-terminus assumed)	316 pM	2.1	304 pM
CC[C@H](C)[C@H](NC(=O)[C@H](Cc1c[nH]c2ccccc12)NC(=O)[C@H](CCCCNC(=O)COCCOCCNC(=O)COCCOCCNC(=O)CC[C@H](NC(=O)CCCCCCCCCCCCCCCCC(=O)O)C(=O)O)NC(=O)[C@@H](NC(=O)[C@H](Cc1ccccc1)NC(=O)[C@H](CC(=O)O)NC(=O)[C@H](CCC(N)=O)NC(=O)[C@H](C)NC(=O)[C@H](C)NC(=O)[C@H](CCC(N)=O)NC(=O)[C@H](CO)NC(=O)[C@H](CC(=O)O)NC(=O)[C@H](CC(C)C)NC(=O)[C@](C)(Cc1ccccc1)NC(=O)[C@H](CCCCN)NC(=O)[C@H](CO)NC(=O)[C@@H](NC(=O)[C@H](CC(=O)O)NC(=O)[C@H](CO)NC(=O)[C@@H](NC(=O)[C@](C)(Cc1ccccc1)NC(=O)[C@H](CO)NC(=O)CNC(=O)[C@@H](NC(=O)C(C)(C)NC(=O)[C@@H](N)Cc1c[nH]cn1)[C@@H](C)CC)[C@@H](C)O)C(C)C)C(C)C)C(=O)N[C@@H](C)C(=O)N[C@@H](CC(N)=O)C(=O)N[C@H](C(N)=O)[C@@H](C)O [Peptide 358] (H-H[Aib]IGS[αMeF]TSDVSK[αMeF]LDSQAAQDFVK([AEEA-AEEA-γGlu-C18 diacid])WIANT-NH2; N-terminus assumed)	16000 pM	–	74.9 pM
